Laboratory results from patent US7572768B2, “Methods for identifying compounds for regulating muscle mass or function using corticotropin releasing factor receptors” (priority 2001, dated 2009).

Columns and labels:
Format in all cases: in vivo
[1] = test system: denervation-induced atrophy of skeletal muscle; assay: adrenalectomized rat sciatic nerve denervation-induced atrophy model; conditions: male adrenalectomized rats, 0.003-0.03 mg/kg s.c. twice daily + 30 mg/kg theophylline, nine days
Experimental: Legend: A—physiological saline (control); B—sauvagine (0.003 mg/kg)+theophylline; C—sauvagine (0.01 mg/kg)+theophylline; D—sauvagine (0.03 mg/kg)+theophylline; #—p≦0.05 compared to corresponding controls. Following denervation of the right sciatic nerve, male adrenalectomized rats (adrenalectomized rats were used to remove the skeletal muscle atrophy-inducing effects of activation of the HPA axis via agonisms of the CRF1R) were injected subcutaneously in the midscapular region twice daily, with either sauvagine or vehicle control (physiological saline) for nine days at the doses shown above. Sauvagine was co-administered with 30 mg/kg theophylline. On day nine, the tibialis anterior, extensor digitorum longus (EDL), soleus, medial gastrocnemius, and plantaris muscles were removed and weighed to determine the degree of atrophy.
(§1) The sciatic nerve denervation atrophy model involves anesthetizing the animal followed by the surgical removal of a short segment of either the right or left sciatic nerve, e.g., in mice the sciatic nerve is isolated approximately at the midpoint along the femur and a 3-5 mm segment is removed. This denervates the lower hind limb musculature resulting in atrophy of these muscles. Typically, innervation to the biceps femoris is left intact to provide satisfactory motion of the knee for virtually normal ambulation. Typically, in untreated animals, muscle mass of the denervated muscles is reduced 30-50% ten days following denervation. Following denervation, test compounds are administered e.g., by injection or by continuous infusion, e.g., via implantation of an osmotic minipump (e.g., Alzet, Palo Alto, Calif.), to determine their effect on denervation induced skeletal muscle atrophy. At various times following denervation, the animals are euthanized and lower leg muscles are dissected rapidly from both the denervated and nondenervated legs, the muscles, cleaned of tendons and connective tissue, are weighed. The extent of atrophy in the affected muscles is analyzed, for example, by measuring muscle mass, muscle cross-sectional area, myofiber cross-sectional area or contractile protein content.

[2] = test system: glucocorticoid-induced muscle atrophy; assay: mouse glucocorticoid-induced atrophy model; conditions: male mice, dexamethasone 1.2 mg/kg/d in drinking water, 0.1-1.0 mg/kg/d by osmotic minipump, nine days
Experimental: Legend: A—water only with no dexamethasone included in drinking water (non-atrophied control); B—water+dexamethasone (atrophied control); C—sauvagine (0.1 mg/kg/d)+dexamethasone; D—sauvagine (0.3 mg/kg/d)+dexamethasone; E—sauvagine (1.0 mg/kg/d)+dexamethasone; *—p≦0.05 compared to water; #—p≦0.05 compared to water+dexamethasone. Following the addition of the glucocorticoid, dexamethasone, to the drinking water (1.2 mg/kg/d), male mice were dosed with the above indicated agents or vehicle control (physiological saline) by continuous infusion using an Alzet osmotic minipump at 5 μl/hr until the end of the experimental period (without additional theophylline). The daily delivered dose of sauvagine is as indicated above. Minipump implantation was performed at the time of initiation of dexamethasone exposure. Nine days following the initiation of dosing sauvagine, the medial gastrocnemius and tibialis anterior muscles were removed and weighed to determine the degree of atrophy.
The glucocorticoid-induced atrophy model involves the administration of a glucocorticoid to the test animal, e.g., 1.2 mg/kg/day of dexamethasone in the drinking water. […] At various times following glucocorticoid administration, the extent of atrophy in the affected muscles is analyzed as described above for the denervation model.

[3] = test system: denervation-induced atrophy of skeletal muscle; assay: mouse sciatic nerve denervation atrophy model
Experimental: Legend: A—physiological saline (control); B—sauvagine (0.01 mg/kg)+theophylline; C—sauvagine (0.03 mg/kg)+theophylline; D—sauvagine (0.1 mg/kg)+theophylline; E—sauvagine (1.0 mg/kg)+theophylline; *—p≦0.05 compared to saline. Following denervation of the right sciatic nerve, male mice were injected subcutaneously in the midscapular region twice daily with sauvagine, at the doses indicated above or vehicle control (physiological saline) for nine days. Sauvagine was co-administered with 30 mg/kg theophylline. On day nine, the medial gastrocnemius muscle was removed and weighed to determine the degree of atrophy.
Legend: A—water (control); B—sauvagine (0.1 mg/kg/d); C—sauvagine (0.3 mg/kg/d); D—sauvagine (1.0 mg/kg/d); *—p≦0.05 compared to water. Following denervation of the right sciatic nerve, male mice were dosed with either sauvagine or vehicle control (physiological saline) by continuous infusion using an Alzet osmotic minipump at 5 μl/hr until the end of the experimental period (without additional theophylline). The daily delivered dose of sauvagine is indicated above. Minipump implantation was performed at the time of sciatic nerve denervation. On day nine the tibialis anterior muscle was removed and weighed to determine the degree of atrophy.
Legend: A—water (control); B—sauvagine (1 mg/kg/d); C—urocortin (1.0 mg/kg/d); *—p≦0.05 compared to water. Following denervation of the right sciatic nerve, male mice were dosed with the above indicated agents or vehicle control (physiological saline) by continuous infusion using an Alzet osmotic minipump at 5 μl/hr until the end of the experimental period (without additional theophylline). The daily delivered dose of the agents is indicated above. Minipump implantation was performed at the same time as the sciatic nerve denervation. On day nine the tibialis anterior muscle was removed and weighed to determine the degree of atrophy.
Legend: A-C—wild-type mice; D-F—CRF2R knockout mice. A and D—water (control); B and E—sauvagine (0.3 mg/kg/d); C and F—sauvagine (1.0 mg/kg/d); *—p≦0.05 compared to saline. Following denervation of the right sciatic nerve, female wild-type and CRF2R knockout mice were dosed with sauvagine or vehicle control by continuous infusion using an Alzet osmotic minipump at 5 μl/hr for nine days at the daily delivered dose indicated above. On day nine, the tibialis anterior muscle was removed and weighed to determine the degree of atrophy.
as §1

Structure (SMILES): CC[C@H](C)[C@H](NC(=O)[C@@H](NC(=O)[C@H](CC(=O)O)NC(=O)[C@H](CC(C)C)NC(=O)[C@H](CC(C)C)NC(=O)[C@H](CC(C)C)NC(=O)[C@H](CCCNC(=N)N)NC(=O)[C@H](CC(N)=O)NC(=O)[C@H](CC(N)=O)NC(=O)[C@H](C)NC(=O)[C@H](C)NC(=O)[C@H](CCC(N)=O)NC(=O)[C@H](CCC(N)=O)NC(=O)[C@H](CCCCN)NC(=O)[C@H](CCC(=O)O)NC(=O)[C@H](CCCCN)NC(=O)[C@H](CCC(=O)O)NC(=O)[C@H](CCC(N)=O)NC(=O)[C@H](CCCCN)NC(=O)[C@H](CCC(=O)O)NC(=O)[C@@H](NC(=O)[C@H](CCC(=O)O)NC(=O)[C@@H](NC(=O)[C@H](CCSC)NC(=O)[C@H](CCCCN)NC(=O)[C@H](CCCNC(=N)N)NC(=O)[C@H](CC(C)C)NC(=O)[C@H](CC(C)C)NC(=O)[C@H](CCC(=O)O)NC(=O)[C@H](CC(C)C)NC(=O)[C@H](CO)NC(=O)[C@H](CC(C)C)NC(=O)[C@H](CC(=O)O)NC(=O)[C@@H](NC(=O)[C@H](CO)NC(=O)[C@@H](NC(=O)[C@@H]1CCCN1C(=O)[C@@H]1CCCN1C(=O)CNC(=O)[C@@H]1CCC(=O)N1)[C@@H](C)CC)[C@@H](C)CC)[C@@H](C)CC)[C@@H](C)CC)[C@@H](C)O)C(N)=O [sauvagine]
- denervation-induced atrophy of the tibialis anterior muscle (muscle weight) ([1]; FIG. 7A): inhibits denervation-induced atrophy
- denervation-induced atrophy of the EDL muscle (muscle weight) ([1]; FIG. 7B): inhibits denervation-induced atrophy
- hypertrophy of the non-denervated EDL muscle ([1]; FIG. 7B): statistically significant hypertrophy
- denervation-induced atrophy of the soleus muscle (muscle weight) ([1]; FIG. 7C): inhibits denervation-induced atrophy
- denervation-induced atrophy of the medial gastrocnemius muscle (muscle weight) ([1]; FIG. 7D): inhibits denervation-induced atrophy
- denervation-induced atrophy of the plantaris muscle (muscle weight) ([1]; FIG. 7E): inhibits denervation-induced atrophy
- glucocorticoid-induced atrophy of the tibialis anterior muscle (muscle weight) ([2]; FIG. 3A): inhibits glucocorticoid-induced muscle atrophy
- glucocorticoid-induced atrophy of the medial gastrocnemius muscle (muscle weight) ([2]; FIG. 3B): inhibits glucocorticoid-induced muscle atrophy
- denervation-induced atrophy of the medial gastrocnemius muscle (muscle weight) ([3]; FIG. 1, male mice, 0.01-1.0 mg/kg s.c. twice daily + 30 mg/kg theophylline, nine days): inhibits denervation-induced atrophy
- denervation-induced atrophy of the tibialis anterior muscle (muscle weight) ([3]; FIG. 2, male mice, 0.1-1.0 mg/kg/d continuous infusion by osmotic minipump, no theophylline, day nine): inhibits denervation-induced atrophy
- denervation-induced atrophy of the tibialis anterior muscle (muscle weight) ([3]; FIG. 5, male mice, 1 mg/kg/d continuous infusion by osmotic minipump, no theophylline, day nine): inhibit denervation-induced atrophy
- denervation-induced atrophy of the tibialis anterior muscle (muscle weight) ([3]; FIG. 8, female wild-type mice, 0.3 and 1.0 mg/kg/d by osmotic minipump, nine days): inhibits the atrophy
